Where two headings read alike, the source gives them in different places.
Key:
in vitro [1] = settings: male, rat, microsomes
[2] = test system: SARS-CoV-2 hCoV-19/Japan/TY/WK-521 strain; experiment: microbe, parasite or virus in culture; type: cell-based; settings: Severe acute respiratory syndrome coronavirus 2, HEK-293T, read-out: HEK 293T-AT EC50
in vitro [3] = settings: both, human, microsomes
SARS-CoV-2 3CL^pro = SARS-CoV-2 3CL^pro (Severe acute respiratory syndrome coronavirus 2, UniProt P0DTD1); experiment: biochemical; type: biochemical
HCoV-229E = experiment: microbe, parasite or virus in culture; type: cell-based; settings: Human coronavirus 229E, MRC5, read-out: EC50 HCoV-229E
SARS-CoV-2 = experiment: microbe, parasite or virus in culture; type: cell-based; settings: Severe acute respiratory syndrome coronavirus 2, A549
P-gp [4] = target: T1, P-gp (Homo sapiens, UniProt P08183); settings: LLC-PK1
[5] = test system: SARS-CoV-2 Omicron strains; experiment: microbe, parasite or virus in culture; type: cell-based; settings: Severe acute respiratory syndrome coronavirus 2, Epithelial cell
HCoV-OC43 = experiment: microbe, parasite or virus in culture; type: cell-based; settings: Betacoronavirus 1, OC43, MRC5, read-out: EC50 HCoV-OC43
P-gp [6] = target: T1, P-gp; experiment: in vitro; settings: LLC-PK1
in vitro [7] = settings: pig, LLC-PK1
in vivo [8] = settings: male, Sprague-Dawley, rat
in vivo [9] = settings: female, cynomolgus monkey, iv, 0.1 mg/kg
in vivo [10] = settings: male, beagle, dog, iv, 0.1 mg/kg
[11] = read-out: SARS-CoV-2 3CL^pro IC50

T1 sequence (P08183 whole entry): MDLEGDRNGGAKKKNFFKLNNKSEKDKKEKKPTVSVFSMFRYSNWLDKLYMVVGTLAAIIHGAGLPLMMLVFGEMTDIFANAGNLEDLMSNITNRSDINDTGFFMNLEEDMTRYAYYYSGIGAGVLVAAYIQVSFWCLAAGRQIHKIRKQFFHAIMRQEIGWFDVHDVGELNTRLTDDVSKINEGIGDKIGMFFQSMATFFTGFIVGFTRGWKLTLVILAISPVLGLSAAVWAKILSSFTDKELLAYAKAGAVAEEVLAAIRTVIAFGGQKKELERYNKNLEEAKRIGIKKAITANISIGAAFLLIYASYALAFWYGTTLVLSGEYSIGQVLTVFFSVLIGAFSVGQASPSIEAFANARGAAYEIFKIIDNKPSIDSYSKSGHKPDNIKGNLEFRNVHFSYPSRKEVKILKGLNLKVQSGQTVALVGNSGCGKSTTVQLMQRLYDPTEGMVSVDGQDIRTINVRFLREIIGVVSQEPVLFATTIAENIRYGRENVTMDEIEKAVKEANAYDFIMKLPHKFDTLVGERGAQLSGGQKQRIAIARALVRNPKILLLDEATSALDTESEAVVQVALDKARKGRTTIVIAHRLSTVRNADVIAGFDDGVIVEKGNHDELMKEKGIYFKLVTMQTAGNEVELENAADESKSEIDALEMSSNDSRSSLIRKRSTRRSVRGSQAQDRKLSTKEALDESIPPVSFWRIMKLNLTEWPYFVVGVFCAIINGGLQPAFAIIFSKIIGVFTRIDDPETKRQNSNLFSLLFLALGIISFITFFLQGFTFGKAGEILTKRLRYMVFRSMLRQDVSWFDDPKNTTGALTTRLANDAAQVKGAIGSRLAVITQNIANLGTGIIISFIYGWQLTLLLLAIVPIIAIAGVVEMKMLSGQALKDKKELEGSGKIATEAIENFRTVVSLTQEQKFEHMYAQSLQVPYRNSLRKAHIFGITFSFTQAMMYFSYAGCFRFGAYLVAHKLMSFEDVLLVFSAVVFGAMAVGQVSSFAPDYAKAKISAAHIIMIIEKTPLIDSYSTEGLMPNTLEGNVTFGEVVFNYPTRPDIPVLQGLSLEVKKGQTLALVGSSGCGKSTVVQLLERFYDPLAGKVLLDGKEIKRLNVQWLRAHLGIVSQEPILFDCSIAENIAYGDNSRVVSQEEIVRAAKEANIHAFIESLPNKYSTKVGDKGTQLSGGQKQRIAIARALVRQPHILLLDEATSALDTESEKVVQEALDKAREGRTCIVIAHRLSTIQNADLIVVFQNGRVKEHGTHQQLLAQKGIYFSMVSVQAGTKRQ

Compound	remaining at 0.5 h (in vitro [1]) [%]	EC50 [2] [µM]	remaining at 0.5 h (in vitro [3]) [%]	IC50 (SARS-CoV-2 3CL^pro) [µM]	other results
Cc1cncc(-n2c(=O)c(Cc3cc(F)c(F)c(F)c3)c(N3Cc4ccccc4C3)n(CC#N)c2=O)c1 [Compound 4, 2-(6-(Isoindolin-2-yl)-3-(5-methylpyridin-3-yl)-2,4-dioxo-5-(3,4,5-trifluorobenzyl)-3,4-dihydropyrimidin-1(2H)-yl)-acetonitrile]	3	0.00494	1		IC50 (SARS-CoV-2 3CL^pro; [11]): 0.00076 µM
Cc1cncc(-n2c(=O)c(Cc3cc(F)c(F)c(F)c3)c(N3CCCC3)n(CC#N)c2=O)c1 [Compound 5, 2-(3-(5-Methylpyridin-3-yl)-2,4-dioxo-6-(pyrrolidin-1-yl)-5-(3,4,5-trifluorobenzyl)-3,4-dihydropyrimidin-1(2H)-yl)-acetonitrile]	11	0.0204	4	0.0118	
Cc1cncc(-n2c(=O)c(Cc3cc(F)c(F)c(F)c3)c(N3CC4(CCOCC4)C3)n(CC#N)c2=O)c1 [Compound 7, 2-(3-(5-Methylpyridin-3-yl)-2,4-dioxo-6-(7-oxa-2-azaspiro[3.5]-nonan-2-yl)-5-(3,4,5-trifluorobenzyl)-3,4-dihydropyrimidin-1(2H)-yl)-acetonitrile]	77	0.0419	58	0.014	
Cc1cncc(-n2c(=O)c(Cc3cc(F)c(F)c(F)c3)c(N3CC4(CCOC4)C3)n(CC#N)c2=O)c1 [Compound 9, 2-(3-(5-Methylpyridin-3-yl)-2,4-dioxo-6-(6-oxa-2-azaspiro[3.4]-octan-2-yl)-5-(3,4,5-trifluorobenzyl)-3,4-dihydropyrimidin-1(2H)-yl)-acetonitrile]	81	0.0184	58	0.00837	
Cc1cncc(-n2c(=O)[nH]c(N3Cc4ccccc4C3)c(Cc3cc(F)c(F)c(F)c3)c2=O)c1 [Compound 2, 6-(Isoindolin-2-yl)-3-(5-methylpyridin-3-yl)-5-(3,4,5-trifluorobenzyl)-pyrimidine-2,4(1H,3H)-dione]	36	1.49	45	0.335	
Cc1cncc(-n2c(=O)c(Cc3cc(F)c(F)c(F)c3)c(N3CCC(C(F)(F)F)CC3)n(CC#N)c2=O)c1 [Compound 6, 2-(3-(5-Methylpyridin-3-yl)-2,4-dioxo-5-(3,4,5-trifluorobenzyl)-6-(4-(trifluoromethyl)-piperidin-1-yl)-3,4-dihydropyrimidin-1(2H)-yl)-acetonitrile]	18	0.00941	13	0.00151	
N#CCn1c(N2CC3(CCOC3)C2)c(-c2ccc(F)c(Cl)c2)c(=O)n(-c2cncc(Cl)c2)c1=O [Compound 15, 2-(5-(3-Chloro-4-fluorophenyl)-3-(5-chloropyridin-3-yl)-2,4-dioxo-6-(6-oxa-2-azaspiro[3.4]-octan-2-yl)-3,4-dihydropyrimidin-1(2H)-yl)-acetonitrile]	58	0.00448	55	0.000493	improvement of activity by substituents on the S2 phenyl group (SARS-CoV-2 3CL^pro): more than 10 -fold
N#CCn1c(N2CC3(CCOC3)C2)c(-c2ccccc2)c(=O)n(-c2cncc(Cl)c2)c1=O [Compound 13, 2-(3-(5-Chloropyridin-3-yl)-2,4-dioxo-5-phenyl-6-(6-oxa-2-azaspiro[3.4]-octan-2-yl)-3,4-dihydropyrimidin-1(2H)-yl)-acetonitrile]	58	0.0231	55	0.00716	
N#CCn1c(N2CC3(CCOC3)C2)c(-c2cccc(Cl)c2)c(=O)n(-c2cncc(Cl)c2)c1=O [Compound 14, 2-(5-(3-Chlorophenyl)-3-(5-chloropyridin-3-yl)-2,4-dioxo-6-(6-oxa-2-azaspiro[3.4]-octan-2-yl)-3,4-dihydropyrimidin-1(2H)-yl)-acetonitrile]	33	0.00157	49		improvement of activity by substituents on the S2 phenyl group (SARS-CoV-2 3CL^pro): more than 10 -fold; IC50 (SARS-CoV-2 3CL^pro; [11]): 0.000403 µM
CC(C)(C)[C@H](NC(=O)C(F)(F)F)C(=O)N1C[C@H]2[C@@H]([C@H]1C(=O)N[C@H](C#N)C[C@@H]1CCNC1=O)C2(C)C [nirmatrelvir, reference compound]					EC50 (HCoV-229E): 0.696 ± 0.21 µM; EC50 (SARS-CoV-2): 0.0475 ± 0.0123 µM; P-gp substrate assessment (P-gp [4]): P-gp substrates; EC90 [5]: 0.0451 ± 0.0212 µM; EC50 (HCoV-OC43): 0.0588 ± 0.0122 µM; Papp A→B (P-gp [6]): 9.08 nm/s; Papp B→A (P-gp [6]): 93.9 nm/s; Papp A→B (in vitro [7]): 6.15 nm/s; Papp B→A (in vitro [7]): 14.2 nm/s
Cc1cncc(-n2c(=O)c(Cc3ccccc3)c(N3CC4(CCOC4)C3)n(CC#N)c2=O)c1 [Compound 12, 2-(5-Benzyl-3-(5-methylpyridin-3-yl)-2,4-dioxo-6-(6-oxa-2-azaspiro[3.4]-octan-2-yl)-3,4-dihydropyrimidin-1(2H)-yl)-acetonitrile]	70	0.117	70	0.0996	
Cc1cncc(-n2c(=O)nc(N3Cc4ccccc4C3)n(Cc3cc(F)c(F)c(F)c3)c2=O)c1 [Compound 1, 6-(Isoindolin-2-yl)-3-(5-methylpyridin-3-yl)-1-(3,4,5-trifluorobenzyl)-1,3,5-triazine-2,4(1H,3H)-dione]	19	0.264	49	0.143	
Cc1cncc(-n2c(=O)c(Cc3ccc(F)c(F)c3)c(N3CC4(CCOC4)C3)n(CC#N)c2=O)c1 [Compound 11, 2-(5-(3,4-Difluorobenzyl)-3-(5-methylpyridin-3-yl)-2,4-dioxo-6-(6-oxa-2-azaspiro[3.4]-octan-2-yl)-3,4-dihydropyrimidin-1(2H)-yl)-acetonitrile]	71	0.0418	55	0.0196	
N#CCn1c(N2CC(F)(F)C2)c(-c2ccc(F)c(Cl)c2)c(=O)n(-c2cncc(Cl)c2)c1=O [Compound 16, 2-(5-(3-Chloro-4-fluorophenyl)-3-(5-chloropyridin-3-yl)-6-(3,3-difluoroazetidin-1-yl)-2,4-dioxo-3,4-dihydropyrimidin-1(2H)-yl)-acetonitrile]	83	0.00779	89	0.00236	
Cc1cncc(-n2c(=O)c(Cc3cc(F)c(F)c(F)c3)c(N3CC4(C3)CC(F)(F)C4)n(CC#N)c2=O)c1 [Compound 8, 2-(6-(6,6-Difluoro-2-azaspiro[3.3]-heptan-2-yl)-3-(5-methylpyridin-3-yl)-2,4-dioxo-5-(3,4,5-trifluorobenzyl)-3,4-dihydropyrimidin-1(2H)-yl)-acetonitrile]	62	0.0144	36	0.00563	
N#CCn1c(N2CC(O)(C(F)(F)F)C2)c(-c2ccc(F)c(Cl)c2)c(=O)n(-c2cncc(Cl)c2)c1=O [Compound 18, 2-(5-(3-Chloro-4-fluorophenyl)-3-(5-chloropyridin-3-yl)-6-(3-hydroxy-3-(trifluoromethyl)-azetidin-1-yl)-2,4-dioxo-3,4-dihydropyrimidin-1(2H)-yl)-acetonitrile]	99	0.00382	103	0.000391	clearance (in vivo [8]; iv): 0.401 L/h/kg; half-life (in vivo [8]; iv): 6.89 h; bioavailability (in vivo [8]; po, 1 umol/kg): 38%; clearance (in vivo [9]): 1.18 L/h/kg; half-life (in vivo [9]): 3.48 h; clearance (in vivo [10]): 0.275 L/h/kg; half-life (in vivo [10]): 8.74 h; Papp A→B (in vitro [7]): 12.6 nm/s
Cc1cncc(-n2c(=O)c(Cc3cc(F)c(F)c(F)c3)c(N3Cc4ccccc4C3)n(C)c2=O)c1 [Compound 3, 6-(Isoindolin-2-yl)-1-methyl-3-(5-methylpyridin-3-yl)-5-(3,4,5-trifluorobenzyl)-pyrimidine-2,4(1H,3H)-dione]	1	0.191	1	0.179	
N#CCn1c(N2CC3(CCOC3)C2)c(Cc2cc(F)c(F)c(F)c2)c(=O)n(-c2cncc(Cl)c2)c1=O [Compound 10, 2-(3-(5-Chloropyridin-3-yl)-2,4-dioxo-6-(6-oxa-2-azaspiro[3.4]-octan-2-yl)-5-(3,4,5-trifluorobenzyl)-3,4-dihydropyrimidin-1(2H)-yl)-acetonitrile]	54	0.0253	17	0.00827	

From publication PMC12557365 (Journal of Medicinal Chemistry, 2025)
